# Biological target: T1, MRGPRX2 (Homo sapiens, UniProt Q96LB1)
# T1 sequence (Q96LB1 1-330): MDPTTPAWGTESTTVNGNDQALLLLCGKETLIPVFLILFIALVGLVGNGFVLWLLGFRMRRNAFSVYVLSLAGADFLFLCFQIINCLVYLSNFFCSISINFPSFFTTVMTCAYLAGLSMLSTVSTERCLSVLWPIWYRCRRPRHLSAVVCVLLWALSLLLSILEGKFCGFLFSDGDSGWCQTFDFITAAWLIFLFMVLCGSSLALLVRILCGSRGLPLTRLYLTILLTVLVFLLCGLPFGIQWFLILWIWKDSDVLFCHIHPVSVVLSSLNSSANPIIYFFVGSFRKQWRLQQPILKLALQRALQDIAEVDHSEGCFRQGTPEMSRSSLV
# Experiment: MRGPRX2 reporter cell assay (NFAT-RE luciferase, Substance P stimulation)
# Type: cell-based
# Details: U2OS cells stably transfected with MRGPRX2 and NFAT-RE luciferase reporter; Substance P at EC80
# Experimental: MRGPRX2 Reporter Cell Assays U2OS cells (ATCC, Manassas, VA) were stably transfected with MRGPRX2 expression clones (GeneCopoeia, Rockville, MD) and the pGL4.30 [luc2P/NFAT-RE/Hygro] reporter plasmid (Promega, Madison, WI). Clonal cells were maintained in Growth Media (McCoy's 5A, 10% FBS, 495 μg/ml hygromycin, 2 μg/ml puromycin, 100 units/ml penicillin, and 100 ug/ml streptomycin). The day before assay, cells were plated to white 384-well microplates at 3000 (MRGPRX2) cells/well in 10 ul Assay Media (McCoy's 5A, 2% charcoal dextran stripped FBS, 100 units/ml penicillin, and 100 ug/ml streptomycin) (Gibco, Thermo Fisher) and allowed to adhere overnight. The following day, serially diluted compound stocks were added directly to the cells (final DMSO concentration of 0.5%) and pre-incubated for 30 minutes at 37° C., 5% CO2. The final concentration of Substance P (Tocris, Minneapolis, MN, or PEPTIDE INSTITUTE, Osaka, Japan) corresponding to EC80 was added to stimulate the (MRGPRX2) cells. Cells were returned to the incubator for 6 hrs, after which 5 ul of ONE-GLO substrate (Promega) was added. Luminescence was read within 15 minutes (BioTek, Winooski, VT or infinite M1000Pro, Tecan Japan, Kanagawa, Japan). Percent inhibition for each test compound was calculated using the formula: […] where: • A=the luminescence count of the “test compound” well • B=the median luminescence count of the “Vehicle (0.5% DMSO)” wells • C═the median luminescence count of the “Vehicle (0.5% DMSO)+5 uM of substance P” wells The mean percent inhibition of each concentration of “test compound” was used to generate dose-response curves. IC50 values were calculated using a four-parameter logistic fit to the data using GraphPad Prism software. • +++: […]
row,Structure (SMILES),IC50 [nM]
1,Cn1cc(-c2c(-c3c(C(F)F)nn4c3OCCC4)[nH]c3ncccc23)c(OC(F)F)n1 [EX. 272],2.9
2,COC(=O)N[C@@H]1COc2c(-c3[nH]c4ncccc4c3-c3cn(C)nc3OC(F)F)c(C(F)F)nn2C1 [EX. 571],1.2

# Same assay, conditions: U2OS cells stably transfected with MRGPRX2 and NFAT-RE luciferase reporter; Substance P at EC80; class symbols
row,Structure (SMILES),IC50 [nM]
1,[2H]C([2H])([2H])Oc1ccc(C#N)c(-c2c(-c3c(C)nn4cc(C)cnc34)[nH]c3ncccc23)c1 [EX. 266],< 10
2,FC(F)Oc1ncccc1-c1c(-c2c(C(F)F)nn3c2OC[C@@H](F)C3)[nH]c2ncccc12 [EX. 437],< 10
3,COc1ccc(C#N)c(-c2c(-c3c(C(F)F)nn4c3OCC3(CC3)C4)[nH]c3ncccc23)c1 [EX. 183],< 10
4,CCO[C@@H]1COc2c(-c3[nH]c4ncccc4c3-c3cn(C)nc3C#N)c(C(F)F)nn2C1 [EX. 502],< 10
5,"COc1ncccc1-c1c(-c2c(C(F)F)nn3c2OCCC3)[nH]c2ncccc12 [EX. 429, 2-(difluoromethyl)-3-(3-(2-methoxypyridin-3-yl)-1H-pyrrolo[2,3-b]pyridin-2-yl)-6,7-dihydro-5H-pyrazolo[5,1-b] [1,3]oxazine]",< 10
6,COc1ccc(F)c(-c2c(-c3cc(F)ccc3OC)[nH]c3ncccc23)c1 [EX. 323],< 10
7,Cc1cc(-c2c(-c3c(C(F)F)nn4c3OCC4)[nH]c3ncccc23)c(C#N)s1 [EX. 433],< 10
8,Cn1cc(-c2c(-c3c(C(F)F)nn4c3OCCC4)[nH]c3ncccc23)c(OC(F)F)n1 [EX. 272],< 10
9,O[C@@H]1COc2c(-c3[nH]c4ncccc4c3-c3ccsc3Cl)c(C(F)F)nn2C1 [EX. 453],< 10
10,Cn1cc(-c2c(-c3c(C(F)(F)F)nn4c3OCCC4)[nH]c3ncccc23)c(OC(F)F)n1 [EX. 528],< 10
11,COc1ccc(C#N)c(-c2c(-c3c(C)nn4c3OCC(N)C4)[nH]c3ncccc23)c1 (stereo not drawn) [EX. 359],< 10
12,Cc1cc(-c2c(-c3cnn4c3OCCC4)[nH]c3ncccc23)c(C#N)s1 [EX. 380],10 to 100
13,Cc1ccc(C#N)c(-c2c(-c3c[nH]nc3C(F)F)[nH]c3ncccc23)c1 [EX. 101],< 10
14,FC(F)Oc1ncccc1-c1c(-c2c(C(F)F)nn3c2OCCCC3)[nH]c2ncccc12 [EX. 441],< 10
15,CS(=O)(=O)N[C@@H]1COc2c(-c3[nH]c4ncccc4c3-c3csnc3OC(F)F)c(C(F)F)nn2C1 [EX. 524],< 10
16,[2H]C([2H])([2H])Oc1ccc(C#N)c(-c2c(-c3c(CC)nn4c3OCCC4)[nH]c3ncccc23)c1 [EX. 200],< 10
17,[2H]C([2H])([2H])Oc1ccc(C#N)c(-c2c(-c3c(C)nn4c3OCCC4C)[nH]c3ncccc23)c1 (stereo not drawn) [EX. 170],< 10
18,COC(=O)N(C)[C@@H]1COc2c(-c3[nH]c4ncccc4c3-c3cn(C)nc3OC(F)F)c(C(F)F)nn2C1 [EX. 578],< 10
19,Cn1cc(-c2c(-c3c(C(F)F)nn4c3OC[C@@H](OCCO)C4)[nH]c3ncccc23)c(C#N)n1 [EX. 500],< 10
20,Cc1cc(-c2c(-c3c(C4CC4)nn4c3OC[C@@H](O)C4)[nH]c3ncccc23)c(C#N)s1 [EX. 460],< 10
21,N#Cc1ccccc1-c1c(-c2cnn3c2OCCC3)[nH]c2nccc(F)c12 [EX. 90],< 10
22,N#Cc1ccccc1-c1c(-c2n[nH]cc2C(F)(F)F)[nH]c2ncccc12 [EX. 264],< 10
23,CS(=O)(=O)N[C@@H]1COc2c(-c3[nH]c4ncccc4c3-c3ccncc3C#N)c(C(F)F)nn2C1 [EX. 523],< 10
24,N#Cc1ncccc1-c1c(-c2c(C(F)F)nn3c2OCCC3)[nH]c2ncccc12 [EX. 411],10 to 100
25,COc1nscc1-c1c(-c2c(C(F)F)nn3c2OCCC3)[nH]c2ncccc12 [EX. 404],10 to 100
26,Cc1ccc(F)c(-c2c(-c3cn(C)nc3C(F)F)[nH]c3ncccc23)c1 [EX. 133],< 10
27,COC(=O)N[C@@H]1COc2c(-c3[nH]c4ncccc4c3-c3cn(C)nc3OC(F)F)c(C(F)F)nn2C1 [EX. 571],< 10
28,COc1ccc(C#N)c(-c2c(-c3c(C(F)F)nn4c3OC[C@@H](F)C4)[nH]c3ncccc23)c1 [EX. 471],< 10

row,Structure (SMILES),IC50 [nM]
1,COc1ccc(C#N)c(-c2c(-c3c(C(F)F)nn4c3OC[C@H](O)C4)[nH]c3ncccc23)c1 [EX. 368],< 10
2,"Cn1cc(-c2c(-c3c(C(F)F)nn4c3OC[C@@H](NS(C)(=O)=O)C4)[nH]c3ncsc23)c(OC(F)F)n1 [EX. 520, (S)—N-(3-(6-(3-(difluoromethoxy)-1-methyl-1H-pyrazol-4-yl)-4H-pyrrolo[2,3-d]thiazol-5-yl)-2-(difluoromethyl)-6,7-dihydro-5H-pyrazolo[5,1-b] [1,3]oxazin-6-yl) methanesulfonamide]",< 10
3,COc1ncccc1-c1c(-c2c(C(F)F)nn3c2OC[C@@H](F)C3)[nH]c2ncccc12 [EX. 446],< 10
4,[2H]C([2H])([2H])Oc1ccc(C#N)c(-c2c(-c3c(C)nn4cccnc34)[nH]c3ncccc23)c1 [EX. 236],< 10
5,FC(F)Oc1cnccc1-c1c(-c2c(C(F)F)nn3c2OCCC3)[nH]c2ncccc12 [EX. 489],< 10
6,COc1ccc(C#N)c(-c2c(-c3c(C(F)F)nn4c3OCCC4)[nH]c3ncccc23)c1 [EX. 242],< 10
7,"[2H]C([2H])([2H])Oc1ccc(C#N)c(-c2c(-c3c(C)nn4c3OC[C@@H](O)C4)[nH]c3ncccc23)c1 [EX. 366, 2-[2-[(6S)-6-hydroxy-2-methyl-6,7-dihydro-5H-pyrazolo[5,1-b] [1,3]oxazin-3-yl]-1H-pyrrolo[2,3-b]pyridin-3-yl]-4-(trideuteriomethoxy)benzonitrile]",< 10
8,O[C@@H]1COc2c(-c3[nH]c4ncccc4c3-c3cccc(F)c3OC(F)F)c(C(F)F)nn2C1 [EX. 466],< 10
9,CO[C@@H]1COc2c(-c3[nH]c4ncccc4c3-c3cn(C)nc3OC(F)F)c(C)nn2C1 [EX. 541],< 10
10,N#Cc1ncccc1-c1c(-c2c(C(F)F)nn3c2OC[C@@H](OCCO)C3)[nH]c2ncccc12 [EX. 508],< 10
11,FC(F)Oc1nscc1-c1c(-c2c(C(F)F)nn3c2OCCC3)[nH]c2ncccc12 [EX. 402],< 10
12,N#Cc1ccccc1-c1c(-c2cn[nH]c2C(F)F)[nH]c2nccc(F)c12 [EX. 81],< 10
13,COC(=O)N[C@@H]1COc2c(-c3[nH]c4ncccc4c3-c3ccncc3C#N)c(C(F)F)nn2C1 [EX. 515],< 10
14,CC(=O)NCCO[C@@H]1COc2c(-c3[nH]c4ncccc4c3-c3cn(C)nc3OC(F)F)c(C(F)F)nn2C1 [EX. 537],< 10
15,O[C@@H]1COc2c(-c3[nH]c4ncccc4c3-c3csnc3OC(F)F)c(C(F)F)nn2C1 [EX. 461],< 10
16,Cn1cc(-c2c(-c3c(C(F)F)nn4c3OC[C@@H](NC(=O)C3CC(F)(F)C3)C4)[nH]c3ncccc23)c(OC(F)F)n1 [EX. 554],< 10
17,Cn1cc(-c2c(-c3c(C(F)F)nn4c3OC[C@@H](NC(=O)[C@@H]3C[C@H]3F)C4)[nH]c3ncccc23)c(OC(F)F)n1 [EX. 551],< 10
18,Cn1cc(-c2c(-c3c(C(F)F)nn4c3OC[C@@H](NC(=O)[C@@H]3CC3(F)F)C4)[nH]c3ncccc23)c(OC(F)F)n1 [EX. 552],< 10
19,COc1ccc(C#N)c(-c2c(-c3c(C)nn4c3OCC(N)C4)[nH]c3ncccc23)c1 (stereo not drawn) [EX. 355],< 10
20,"Cn1cc(-c2c(-c3c(C(F)F)nn4c3OC[C@@H](NC(=O)[C@H]3C[C@H]3F)C4)[nH]c3ncccc23)c(OC(F)F)n1 (atropisomer, axis not shown) [EX. 548]",< 10
21,FC(F)Oc1n[nH]cc1-c1c(-c2c(C(F)F)nn3c2OCCC3)[nH]c2ncccc12 [EX. 406],100 to 1000
22,Cc1nn2c(c1-c1[nH]c3ncccc3c1-c1cn(C)nc1OC(F)F)OC[C@@H](OCCO)C2 [EX. 542],< 10
23,COc1ccc(C#N)c(-c2c(-c3c(C(F)F)nn4c3OC[C@@H](N)C4)[nH]c3ncccc23)c1 [EX. 363],< 10
24,Cn1cc(-c2c(-c3c(C(F)F)nn4c3OC[C@@H](NC(=O)[C@H]3CC3(F)F)C4)[nH]c3ncccc23)c(OC(F)F)n1 [EX. 553],< 10
25,COc1ccc(F)cc1-c1[nH]c2ncccc2c1-c1cc(C)ccc1C#N [EX. 326],< 10
26,Cc1cc(-c2c(-c3c(C(F)F)nn4c3OC[C@@H](O)C4)[nH]c3ncccc23)c(Cl)s1 [EX. 479],< 10
27,COc1ccc(C#N)c(-c2c(-c3cn(C)nc3C(F)F)[nH]c3ncccc23)c1 [EX. 113],< 10
